Among the data in PubChem BioAssay (NCI) are TGI values, retold here.

Among the test systems are MALME-3M melanoma; DU-145 prostate; M14 melanoma; ACHN renal; SNB-19 CNS; RPMI-8226 leukemia; SF-268 CNS; PC-3 prostate; EKVX NSCLC; NCI/ADR-RES ovarian; NCI-H23 lung; NCI-H460 lung.
Assay in all cases: DTP human tumour cell line panel, 48 h

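Where inhibition never reached the appropriate level, the endpoint shown equals the highest concentration tested. Otherwise, values were interpolated linearly from a five-concentration, 48-hour dose response in 96-well plates. Definition used: TGI = concentration required for complete inhibition of growth.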

As for `CN1N=C(c2ccncc2)OC1c1ccc(Cl)c(Cl)c1` (stereo not drawn), the concentration for total growth inhibition (TGI) with MALME-3M melanoma, with DU-145 prostate, in the test with M14 melanoma, in the test with ACHN renal, in the test on SNB-19 CNS and with RPMI-8226 leukemia was greater than 100 µM each time. In addition, the total growth inhibition concentration (TGI) with SF-268 CNS, in the test with PC-3 prostate, with EKVX NSCLC, with NCI/ADR-RES ovarian, with NCI-H23 lung and in the test on NCI-H460 lung was greater than 100 µM each time.

Turning to `CS(=O)(=O)C(=Cc1ccccc1Cl)S(C)(=O)=O`, the TGI in the test on MALME-3M melanoma, with DU-145 prostate, in the test with M14 melanoma, in the test with ACHN renal, with SNB-19 CNS and in the test with RPMI-8226 leukemia was greater than 100 µM throughout. In addition, the TGI in the test on SF-268 CNS, in the test on PC-3 prostate, in the test on EKVX NSCLC, in the test with NCI/ADR-RES ovarian, in the test on NCI-H23 lung and in the test with NCI-H460 lung was greater than 100 µM in each case.

On to `CCCCNc1nc(SC)nc2nc[nH]c12`, for which the TGI in the test with MALME-3M melanoma, in the test on DU-145 prostate, in the test on M14 melanoma, with ACHN renal, in the test with SNB-19 CNS and with RPMI-8226 leukemia was greater than 100 µM throughout. Besides, the concentration for total growth inhibition (TGI) with SF-268 CNS, with PC-3 prostate, with EKVX NSCLC, in the test on NCI/ADR-RES ovarian, with NCI-H23 lung and in the test with NCI-H460 lung was greater than 100 µM each time.

Turning to `COC(=O)[C@]1(c2cc3ccccc3[nH]2)CC2CN(CC(=O)N(C)OC)C1C1OC(C)(C)OC21` (stereo partly drawn), the concentration for total growth inhibition (TGI) is greater than 100 µM with MALME-3M melanoma; greater than 100 µM in the test with DU-145 prostate; greater than 100 µM with M14 melanoma; greater than 100 µM in the test on ACHN renal; greater than 100 µM in the test with SNB-19 CNS; 74 µM in the test on RPMI-8226 leukemia. In addition, the concentration for total growth inhibition (TGI) in the test on SF-268 CNS, in the test on PC-3 prostate, with EKVX NSCLC, in the test on NCI/ADR-RES ovarian, in the test on NCI-H23 lung and in the test with NCI-H460 lung was greater than 100 µM each time.

Consider `CC[C@H](CCCCC1CC[C@@H]2CC(=O)C[C@H]12)OC` (stereo partly drawn), for which the total growth inhibition concentration (TGI) with MALME-3M melanoma, with DU-145 prostate, in the test with M14 melanoma, in the test with ACHN renal, in the test on SNB-19 CNS and in the test with RPMI-8226 leukemia was greater than 100 µM in each case. The total growth inhibition concentration (TGI) with SF-268 CNS, in the test with PC-3 prostate, in the test on EKVX NSCLC, in the test on NCI/ADR-RES ovarian, in the test with NCI-H23 lung and in the test on NCI-H460 lung was greater than 100 µM each time.

Regarding `COC(=O)C1=NN2c3ccccc3CN([C@@H](C)c3ccccc3)C(=O)[C@@H]2C1`, the total growth inhibition concentration (TGI) in the test with MALME-3M melanoma is 62.8 µM; with DU-145 prostate, greater than 100 µM; with M14 melanoma, 57.5 µM; in the test with ACHN renal, greater than 100 µM; with SNB-19 CNS it was greater than 100 µM; in the test with RPMI-8226 leukemia it was 62.7 µM. Further, the TGI with SF-268 CNS was greater than 100 µM; in the test on PC-3 prostate it was greater than 100 µM; in the test on EKVX NSCLC, greater than 100 µM; in the test with NCI/ADR-RES ovarian, 56.1 µM; in the test with NCI-H23 lung it was greater than 100 µM; with NCI-H460 lung, greater than 100 µM.

`Cc1ccc(S(=O)(=O)C2=c3ncccc3=C3C(=O)c4ccccc4C(=O)C32)cc1` (stereo not drawn): the TGI was greater than 100 µM in the test on MALME-3M melanoma; greater than 100 µM in the test on DU-145 prostate; greater than 100 µM with M14 melanoma; greater than 95.8 µM in the test with ACHN renal; 79.9 µM in the test on SNB-19 CNS; greater than 100 µM with RPMI-8226 leukemia. Moreover, the TGI in the test on SF-268 CNS is greater than 90.3 µM; in the test on PC-3 prostate it was greater than 100 µM; in the test on EKVX NSCLC, greater than 100 µM; with NCI/ADR-RES ovarian, greater than 100 µM; in the test with NCI-H23 lung, greater than 100 µM; in the test on NCI-H460 lung, greater than 56.9 µM.

Turning to `COc1cc(Cn2c3c(c4cc(O)ccc42)C(=O)c2ccccc2C3=O)cc(OC)c1`, the TGI in the test on MALME-3M melanoma worked out at 43.8 µM; in the test on DU-145 prostate, 60.6 µM; in the test on M14 melanoma it was 67.5 µM; with ACHN renal, 7.61 µM; with SNB-19 CNS, 25.4 µM; in the test on RPMI-8226 leukemia it was 3.73 µM. The TGI in the test with SF-268 CNS came to 15.5 µM; in the test with PC-3 prostate it was 11.8 µM; in the test with EKVX NSCLC, 48.2 µM; with NCI/ADR-RES ovarian it was 28.8 µM; with NCI-H23 lung, 32.2 µM; in the test with NCI-H460 lung, 32.9 µM.

`C=CCCCC1(C)CCCCNC1=O` (stereo not drawn): the TGI with MALME-3M melanoma, in the test on DU-145 prostate, in the test on M14 melanoma, in the test on ACHN renal, in the test on SNB-19 CNS and in the test on RPMI-8226 leukemia was greater than 10 µM throughout. In addition, the TGI with SF-268 CNS, with PC-3 prostate, with EKVX NSCLC, in the test with NCI/ADR-RES ovarian, with NCI-H23 lung and in the test on NCI-H460 lung was greater than 10 µM in each case.

A word on the TGI: it is the concentration giving total growth inhibition. High values mean less potent growth arrest, low ones more potent growth arrest.
